Source: ChEMBL document CHEMBL4219043, “Beyond the Rule of 5: Lessons Learned from AbbVie's Drugs and Compound Collection” (J Med Chem, 2018)
pEC50: −log10 of the molar value. In brackets after ≈: the same amount, converted by molar mass.

Legend:
RS4-11 = assay: Antiproliferative activity against human RS4:11 cells in presence of 10% human serum; assay type: functional, cell-based
MOLT-4 = assay: Antiproliferative activity against human MOLT4 cells in presence of 10% human serum; assay type: functional, cell-based
Hepatitis C virus [1] = assay: Antiviral activity against HCV genotype 1a H77 harboring NS3 R155K mutant infected in human HuH7 replicon cells after 3 days by luciferase reporter gene assay; assay type: functional, organism-based, Hepacivirus hominis; details: genotype 1a H77, Huh-7, 72 h
[2] = Plasma clearance in dog at 1 mg/kg, iv by LC-MS/MS analysis; assay type: ADME, organism-based, Canis lupus familiaris
Hepatitis C virus [3] = assay: Antiviral activity against HCV genotype 1b Con1 infected in human HuH7 replicon cells after 3 days in presence of 40% human plasma by luciferase reporter gene assay; assay type: functional, organism-based, Hepacivirus hominis; details: isolate Con1, Huh-7, 72 h
Hepatitis C virus [4] = assay: Antiviral activity against HCV genotype 1b Con1 harboring NS3 R155K mutant infected in human HuH7 replicon cells after 3 days by luciferase reporter gene assay; assay type: functional, organism-based, Hepacivirus hominis; details: isolate Con1, Huh-7, 72 h
Hepatitis C virus [5] = assay: Resistance index, ratio of EC50 for HCV genotype 1b Con1 harboring NS3 D168V mutant infected in human HuH7 replicon cells to EC50 for HCV genotype 1b Con1 harboring wild type NS3 infected in human HuH7 replicon cells; assay type: functional, Hepacivirus hominis, isolate Con1
Hepatitis C virus [6] = assay: Antiviral activity against HCV genotype 1a H77 infected in human HuH7 replicon cells after 3 days in presence of 40% human plasma by luciferase reporter gene assay; assay type: functional, organism-based, Hepacivirus hominis; details: genotype 1a H77, Huh-7, 72 h
Hepatitis C virus [7] = assay: Antiviral activity against HCV genotype 1b Con1 harboring NS3 D168V mutant infected in human HuH7 replicon cells after 3 days by luciferase reporter gene assay; assay type: functional, organism-based, Hepacivirus hominis; details: isolate Con1, Huh-7, 72 h
Hepatitis C virus [8] = assay: Resistance index, ratio of EC50 for HCV genotype 1a H77 harboring NS3 R155K mutant infected in human HuH7 replicon cells to EC50 for HCV genotype 1a H77 harboring wild type NS3 infected in human HuH7 replicon cells; assay type: functional, Hepacivirus hominis
Hepatitis C virus [9] = assay: Antiviral activity against HCV genotype 1a H77 harboring NS3 D168V mutant infected in human HuH7 replicon cells after 3 days by luciferase reporter gene assay; assay type: functional, organism-based, Hepacivirus hominis; details: genotype 1a H77, Huh-7, 72 h
[10] = Apparent permeability of the compound by PAMPA; assay type: ADME
Canis familiaris [11] = assay: Dose normalized AUC in dog at 3 mg/kg, po after 24 hrs by LC-MS/MS analysis; assay type: ADME, organism-based, Canis lupus familiaris; details: in vivo
[12] = Oral bioavailability in rat by LC-MS/MS analysis; assay type: ADME, organism-based; details: in vivo
[13] = Plasma clearance in iv dosed rat by LC-MS/MS analysis; assay type: ADME, organism-based
Hepatitis C virus [14] = assay: Resistance index, ratio of EC50 for HCV genotype 1b Con1 harboring NS3 R155K mutant infected in human HuH7 replicon cells to EC50 for HCV genotype 1b Con1 harboring wild type NS3 infected in human HuH7 replicon cells; assay type: functional, Hepacivirus hominis, isolate Con1
Canis familiaris [15] = assay: Fraction of drug absorbed into portal vein in dog at 3 mg/kg, po by LC-MS/MS analysis; assay type: ADME, organism-based, Canis lupus familiaris; details: in vivo
[16] = Half life in iv dosed rat by LC-MS/MS analysis; assay type: ADME, organism-based; details: in vivo
[17] = Oral bioavailability in dog at 3 mg/kg by LC-MS/MS analysis; assay type: ADME, organism-based, Canis lupus familiaris; details: in vivo
Hepatitis C virus [18] = assay: Antiviral activity against HCV genotype 1b Con1 infected in human HuH7 replicon cells after 3 days in absence of human plasma by luciferase reporter gene assay; assay type: functional, organism-based, Hepacivirus hominis; details: isolate Con1, Huh-7, 72 h
Rattus norvegicus = assay: Dose normalized AUC in po dosed rat after 24 hrs by LC-MS/MS analysis; assay type: ADME, organism-based; details: in vivo
Hepatitis C virus [19] = assay: Resistance index, ratio of EC50 for HCV genotype 1a H77 harboring NS3 D168V mutant infected in human HuH7 replicon cells to EC50 for HCV genotype 1a H77 harboring wild type NS3 infected in human HuH7 replicon cells; assay type: functional, Hepacivirus hominis
[20] = Half life in dog at 1 mg/kg, iv by LC-MS/MS analysis; assay type: ADME, organism-based, Canis lupus familiaris; details: in vivo
Hepatitis C virus [21] = assay: Antiviral activity against HCV genotype 1a H77 infected in human HuH7 replicon cells after 3 days in absence of human plasma by luciferase reporter gene assay; assay type: functional, organism-based, Hepacivirus hominis; details: genotype 1a H77, Huh-7, 72 h
[22] = Solubility in pH 7.2 buffer; assay type: physicochemical
Hepatitis C virus [23] = assay: Ratio of EC50 in presence of 40% human plasma to EC50 in absence of human plasma for HCV genotype 1a H77 infected in human HuH7 replicon cells; assay type: functional, Hepacivirus hominis
[24] = Half life in po dosed rat by LC-MS/MS analysis; assay type: ADME, organism-based; details: in vivo
[25] = Half life in dog at 3 mg/kg, po by LC-MS/MS analysis; assay type: ADME, organism-based, Canis lupus familiaris; details: in vivo
Hepatitis C virus [26] = assay: Antiviral activity against HCV genotype 3a infected in human HuH7 replicon cells after 3 days in absence of human plasma by luciferase reporter gene assay; assay type: functional, organism-based, Hepacivirus hominis; details: Huh-7, 72 h
[27] = Ratio of EC50 for HCV genotype 3a infected in human HuH7 replicon cells to EC50 for HCV genotype 1a H77 infected in human HuH7 replicon cells; assay type: functional

Structure (SMILES)	clearance [2]	pEC50 (Hepatitis C virus [3])	Ratio EC50 (Hepatitis C virus [5])	pEC50 (Hepatitis C virus [6])	pEC50 (Hepatitis C virus [7])	Ratio EC50 (Hepatitis C virus [8])	pEC50 (Hepatitis C virus [9])	Papp [10]	AUC/dose (Canis familiaris [11])	bioavailability [12]	clearance [13]	Ratio EC50 (Hepatitis C virus [14])	FaFg (Canis familiaris [15])	half-life [16]	pEC50 (Hepatitis C virus [18])	AUC/dose (Rattus norvegicus)	Ratio EC50 (Hepatitis C virus [19])	half-life [20]	pEC50 (Hepatitis C virus [21])	Solubility [22]	other results
CN(C)CC[C@H](CSc1ccccc1)Nc1ccc(S(=O)(=O)NC(=O)c2ccc(N3CCN(Cc4ccccc4-c4ccc(Cl)cc4)CC3)cc2)cc1[N+](=O)[O-] [ABT 737]																					pEC50 (RS4-11): 7.62; pEC50 (MOLT-4): 6.21
CC1(C)CCC(CN2CCN(c3ccc(C(=O)NS(=O)(=O)c4ccc(NCC5CCOCC5)c([N+](=O)[O-])c4)c(Oc4cnc5[nH]ccc5c4)c3)CC2)=C(c2ccc(Cl)cc2)C1 [VENETOCLAX]																					pEC50 (RS4-11): 8.10; pEC50 (MOLT-4): < 5.30
Cc1cc(C(=O)N[C@H]2CCCCC/C=C\[C@@H]3C[C@@]3(C(=O)NS(=O)(=O)C3CC3)NC(=O)[C@@H]3C[C@@H](Oc4nc5ccccc5nc4C)CN3C2=O)no1	7.83 mL/min/kg	8.05	2	7.52	8.30	6	7.03	3.5 ×10⁻⁶ cm/s	0.3 µg·h/mL	3.9%	78.3 mL/min/kg	2	0.2	2.4 h	9.40	0.008 µg·h/mL	177	1.4 h	8.85	> 500 µM	pEC50 (Hepatitis C virus [1]): 8.52; pEC50 (Hepatitis C virus [4]): 8.70; bioavailability [17]: 13%; Ratio EC50 (Hepatitis C virus [23]): 6 - 35
Cc1cc(C(=O)N[C@H]2CCCCC/C=C\[C@@H]3C[C@@]3(C(=O)NS(=O)(=O)C3CC3)NC(=O)[C@@H]3C[C@@H](Oc4nc5cc(F)ccc5nc4C(F)(F)F)CN3C2=O)no1	0.667 mL/min/kg	8.15	5	8.15	8.82	3	7.85	5.1 ×10⁻⁶ cm/s	18 µg·h/mL	28%	38.3 mL/min/kg	1	0.8	2.1 h	9.30	0.14 µg·h/mL	149	3.5 h	9.10	155 µM (≈ 123 µg/mL)	half-life [24]: 1.9 h; pEC50 (Hepatitis C virus [1]): 9.52; half-life [25]: 2.2 h; pEC50 (Hepatitis C virus [26]): 7.08 to 7.19; Ratio EC50 [27]: >80; Ratio EC50 (Hepatitis C virus [23]): 6 - 35
Cc1cc(C(=O)N[C@H]2CCCCC/C=C\[C@@H]3C[C@@]3(C(=O)NS(=O)(=O)C3(C)CC3)NC(=O)[C@@H]3C[C@@H](Oc4nc5ccccc5c5ccc(F)cc45)CN3C2=O)no1	0.333 mL/min/kg	8.10	9	8.22	9.05	18	8.10	0.19 ×10⁻⁶ cm/s	85 µg·h/mL	40%	41.7 mL/min/kg	4	1.4	3.2 h	9.30	0.16 µg·h/mL	168	2.3 h	9.15	1.9 µM (≈ 1.5 µg/mL)	half-life [24]: 3.5 h; half-life [25]: 2 h; pEC50 (Hepatitis C virus [26]): 8.15 to 8.40; pEC50 (Hepatitis C virus [4]): 9.40; bioavailability [17]: 140%; Ratio EC50 (Hepatitis C virus [23]): 6 - 35
Cc1cc(C(=O)N[C@H]2CCCCC/C=C\[C@@H]3C[C@@]3(C(=O)NS(=O)(=O)C3(C)CC3)NC(=O)[C@@H]3C[C@@H](Oc4nc5cc(F)ccc5nc4C(F)(F)F)CN3C2=O)no1	0.333 mL/min/kg	7.96	4	8.05	8.89	3	7.85	12.1 ×10⁻⁶ cm/s	46.8 µg·h/mL	27%	26.7 mL/min/kg	1	0.9	4.1 h	9.30	0.19 µg·h/mL	127	2.9 h	9.15	20.6 µM (≈ 16.6 µg/mL)	half-life [24]: 4.7 h; pEC50 (Hepatitis C virus [1]): 9.52; half-life [25]: 2.9 h; pEC50 (Hepatitis C virus [26]): 6.91; pEC50 (Hepatitis C virus [4]): 9.40; Ratio EC50 (Hepatitis C virus [23]): 6 - 35
CC(=O)N(C)[C@@H](CC(C)(C)C)C(=O)N[C@H]1CCCCC/C=C\[C@@H]2C[C@@]2(C(=O)NS(=O)(=O)C2(C)CC2)NC(=O)[C@@H]2C[C@@H](Oc3nc4cc(F)ccc4c4ccccc34)CN2C1=O	1.17 mL/min/kg	7.92	11	8.15	8.52	0.8	9.40	0.28 ×10⁻⁶ cm/s	11.6 µg·h/mL	27%	51.7 mL/min/kg	33	0.8	1.7 h	8.70	0.09 µg·h/mL	2	2.2 h	9.30	2.2 µM (≈ 1.89 µg/mL)	half-life [24]: 1.5 h; pEC50 (Hepatitis C virus [1]): 9.22; half-life [25]: 2.1 h; pEC50 (Hepatitis C virus [26]): 8.10 to 8.40; pEC50 (Hepatitis C virus [4]): 8.10; bioavailability [17]: 76%; Ratio EC50 (Hepatitis C virus [23]): 6 - 35
